Results reported in US11866430B2, “Naphthyridinone compounds useful as T cell activators” (priority 2018, dated 2024).
Where two headings read alike, the source gives them in different places.

Legend:
human DGKα [1] = molecular target: T1, human DGKα (Homo sapiens (Human), UniProt P23743); test: biochemical
How it was run: (§1)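 Enzymes were baculovirus/Sf9 full-length human DGKα or DGKζ with His tag. The substrate was PS/DAG in octyl glucoside micelles, in MOPS pH 7.5 buffer with NaCl, MgCl2, CaCl2 and DTT.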

human DGKζ [2] = molecular target: T2, human DGKζ (Homo sapiens (Human), UniProt Q13574); test: DGKζ assay (detergent/lipid micelle substrate); assay type: biochemical; conditions: detergent/lipid micelle substrate; read-out: DGKζ IC50
How it was run: as §1

[3] = test system: Jurkat AP1-luciferase Reporter; test: DGK AP1-Reporter Assay; assay type: cell-based
Procedure: The Jurkat AP1-luciferase Reporter was generated using the Cignal Lenti AP1 Reporter (luc) Kit from SABiosciences (CLS-011L).
The sample size was 30 nl per well; and one destination plate per source plate. The cell suspensions were prepared by transferring 40 mL cells (2×20 mL) to clean 50 mL conical tubes. The cells were concentrated by centrifugation (1200 rpm; 5 mins; ambient temperature). […] The cell plates were incubated for 20 minutes at 37° C., and 5% CO2.
During the incubation, anti-CD3 antibody (αCD3) solutions were prepared by mixing 3 μl αCD3 (1.3 mg/mL) with 10 mL medium [final conc=0.4 μg/mL]. Next, 1.5 μl αCD3 (1.3 mg/mL) was mixed with 0.5 mL medium [final conc=4 μg/mL]. After 20 minutes, 10 μl medium was added to all wells in column 1, wells A to M, and 10 μl αCD3 (4 μg/mL) per well was added in column 1, rows N to P for reference. Then using a multi-channel pipette, 10 μl αCD3 (0.4 μg/mL) per well was added. The αCD3 stimulated +/− compound-treated cells were incubated at 37° C., 5% CO2 for 6 hours.
During this incubation period. Steady-Glo (Promega E2520) reagent was slowly thawed on to ambient temperature. Next, 20 μl Steady-Glo reagent per well was added using a multi-drop Combi-dispenser. Bubbles were removed by centrifugation (2000 rpm, ambient temperature, 10 sees). The cells were incubated at room temperature for 5 minutes. Samples were characterized by measuring the Relative Light Units (RLU) with an using Envision Plate Reader Instrument on a luminescence protocol.

human DGKα [4] = molecular target: T1, human DGKα; test: DGKα LIPGLO assay (extruded liposome substrate); assay type: biochemical
How it was run: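 Human full-length DGKα, His-tagged and produced in Sf9 cells, assayed at 20 nM (4× stock) on extruded liposomes of PS, 0.25 mM DAG and 2.75 mM PC, preincubated 10 min. Reaction started with 300 μM ATP (stock) and ran 1 h in MOPS pH 7.5/MgCl2/CaCl2/DTT buffer.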

human DGKζ [5] = molecular target: T2, human DGKζ; test: DGKζ LIPGLO assay (extruded liposome substrate); assay type: biochemical; conditions: extruded liposome substrate; read-out: DGKζ LIPGLO IC50
How it was run: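 Recombinant DGKζ (Sf9-expressed, Ni/SEC/SP-purified) preincubated 10 min with extruded 100 nm PC/DAG/PS liposomes in 50 mM MOPS pH 7.5, 100 mM NaCl, 10 mM MgCl2, 1 μM CaCl2, 1 mM DTT. Started with 300 uM ATP solution (stock, pre-addition); 1 hr reaction. ADP-Glo luminescence; IC50 from 11 concentrations.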

[6] = test system: pre-activated CD4 T cells and Raji cells; test: Raji CD4 T Cell IL2 Assay; assay type: cell-based; conditions: Homo sapiens, Raji
[7] = detergent/lipid micelle substrate, read-out: DGKα IC50
[8] = Homo sapiens, Jurkat, read-out: API-Luciferase Reporter IC50, Table 3

T2 sequence (Q13574 other isoform, or with tags, fused parts or gaps): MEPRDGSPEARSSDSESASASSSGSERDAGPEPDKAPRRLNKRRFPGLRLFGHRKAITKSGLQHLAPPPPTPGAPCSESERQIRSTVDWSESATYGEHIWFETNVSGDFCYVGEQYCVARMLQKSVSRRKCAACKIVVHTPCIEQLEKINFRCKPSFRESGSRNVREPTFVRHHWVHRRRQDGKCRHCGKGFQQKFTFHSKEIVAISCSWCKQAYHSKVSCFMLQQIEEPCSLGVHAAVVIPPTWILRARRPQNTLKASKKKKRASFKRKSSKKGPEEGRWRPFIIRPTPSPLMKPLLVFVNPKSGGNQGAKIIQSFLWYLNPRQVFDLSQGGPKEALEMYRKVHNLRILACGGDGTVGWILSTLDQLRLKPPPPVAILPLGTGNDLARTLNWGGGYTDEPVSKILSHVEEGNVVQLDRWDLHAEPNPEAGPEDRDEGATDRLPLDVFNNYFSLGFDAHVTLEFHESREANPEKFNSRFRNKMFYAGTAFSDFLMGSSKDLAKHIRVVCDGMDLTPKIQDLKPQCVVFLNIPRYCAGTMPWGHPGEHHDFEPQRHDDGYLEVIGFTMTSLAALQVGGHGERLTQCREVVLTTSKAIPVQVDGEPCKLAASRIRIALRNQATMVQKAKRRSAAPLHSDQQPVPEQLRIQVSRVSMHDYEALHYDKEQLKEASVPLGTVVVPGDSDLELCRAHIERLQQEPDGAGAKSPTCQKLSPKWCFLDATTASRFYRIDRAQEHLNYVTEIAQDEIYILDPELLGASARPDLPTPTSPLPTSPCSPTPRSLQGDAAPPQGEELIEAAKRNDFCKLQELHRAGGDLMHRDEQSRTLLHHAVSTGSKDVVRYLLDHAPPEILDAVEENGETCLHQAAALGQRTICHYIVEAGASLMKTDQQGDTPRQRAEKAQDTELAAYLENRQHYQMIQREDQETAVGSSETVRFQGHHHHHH
T1 sequence (P23743 other isoform, or with tags, fused parts or gaps): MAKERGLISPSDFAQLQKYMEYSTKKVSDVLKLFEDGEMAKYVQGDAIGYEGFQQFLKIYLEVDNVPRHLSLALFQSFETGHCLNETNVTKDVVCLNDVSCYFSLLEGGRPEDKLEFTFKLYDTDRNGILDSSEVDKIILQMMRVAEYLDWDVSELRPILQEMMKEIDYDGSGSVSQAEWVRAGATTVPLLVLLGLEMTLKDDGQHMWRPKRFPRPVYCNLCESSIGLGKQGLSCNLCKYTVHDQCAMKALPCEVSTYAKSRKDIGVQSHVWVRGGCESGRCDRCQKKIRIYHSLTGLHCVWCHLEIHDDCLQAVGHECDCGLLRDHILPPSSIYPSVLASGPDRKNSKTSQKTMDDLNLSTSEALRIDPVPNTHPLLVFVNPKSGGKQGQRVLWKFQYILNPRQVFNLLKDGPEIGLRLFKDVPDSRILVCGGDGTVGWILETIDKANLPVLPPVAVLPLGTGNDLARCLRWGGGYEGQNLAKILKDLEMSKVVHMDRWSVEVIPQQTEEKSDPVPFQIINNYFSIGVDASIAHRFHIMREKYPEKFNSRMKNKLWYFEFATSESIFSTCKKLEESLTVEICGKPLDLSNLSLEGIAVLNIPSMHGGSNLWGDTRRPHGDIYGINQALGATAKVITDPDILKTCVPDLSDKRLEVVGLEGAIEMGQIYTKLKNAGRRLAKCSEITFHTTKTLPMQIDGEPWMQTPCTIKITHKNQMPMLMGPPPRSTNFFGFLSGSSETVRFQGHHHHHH

## COc1cc(F)ccc1C(c1ccc(F)cc1)N1CCN(c2c(C#N)c(=O)n(C)c3ccc(Br)nc23)CC1 (racemic) [Example 15, 6-bromo-4-{4-[(4-fluoro-2-methoxyphenyl)(4-fluorophenyl)methyl]piperazin-1-yl}-1-methyl-2-oxo-1,2-dihydro-1,5-naphthyridine-3-carbonitrile]
Human DGKα [1]; [7]
  IC50: 0.55 µM
Human DGKζ [2]
  IC50: 58 µM
[3]; [8]
  IC50: 1.82 µM

## CC(c1ccc(F)cc1)N1CCN(c2c(C#N)c(=O)n(C)c3ccc(Br)nc23)CC1 (racemic) [Example 22, 6-bromo-4-{4-[1-(4-fluorophenyl)ethyl]piperazin-1-yl}-1-methyl-2-oxo-1,2-dihydro-1,5-naphthyridine-3-carbonitrile]
Human DGKα [1]; [7]
  IC50: 0.07 µM
Human DGKζ [2]
  IC50: > 81 µM
[3]; [8]
  IC50: 1.53 µM

## CCC(c1ccc(F)cc1)N1CCN(c2c(C#N)c(=O)n(C)c3ccc(Br)nc23)CC1 (racemic) [Example 25, 6-bromo-4-{4-[1-(4-fluorophenyl)propyl]piperazin-1-yl}-1-methyl-2-oxo-1,2-dihydro-1,5-naphthyridine-3-carbonitrile]
Human DGKα [1]; [7]
  IC50: 0.041 µM
Human DGKζ [2]
  IC50: > 81 µM
[3]; [8]
  IC50: 1.15 µM

## Cn1c(=O)c(C#N)c(N2CCN(CC(O)c3ccc(F)cc3)CC2)c2nc(Br)ccc21 (racemic) [Example 28, 6-bromo-4-{4-[2-(4-fluorophenyl)-2-hydroxyethyl]piperazin-1-yl}-1-methyl-2-oxo-1,2-dihydro-1,5-naphthyridine-3-carbonitrile]
Human DGKα [1]; [7]
  IC50: 1.3 µM
Human DGKζ [2]
  IC50: > 81 µM
[3]; [8]
  IC50: 4.45 µM

## COCCn1c(=O)c(C#N)c(N2CCN(C(c3ccc(F)cc3)c3ccc(F)cc3OC)CC2)c2nc(Br)ccc21 (racemic) [Example 114, 6-bromo-4-(4-((4-fluoro-2-methoxyphenyl)(4-fluorophenyl)methyl)piperazin-1-yl)-1-(2-methoxyethyl)-2-oxo-1,2-dihydro-1,5-naphthyridine-3-carbonitrile]
Human DGKα [1]; [7]
  IC50: 120 µM
Human DGKζ [2]
  IC50: 100 µM
[3]; [8]
  IC50: 4.12 µM

## C#CCn1c(=O)c([N+](=O)[O-])c(N2CCN(C(c3ccc(F)cc3)c3ccccc3O)CC2)c2nc(C#N)ccc21 (racemic) [Example 132, 8-(4-((4-fluorophenyl)(2-hydroxyphenyl)methyl)piperazin-1-yl)-7-nitro-6-oxo-5-(prop-2-yn-1-yl)-5,6-dihydro-1,5-naphthyridine-2-carbonitrile]
Human DGKα [1]; DGKα IC50, detergent/lipid micelle substrate
  IC50: 3.3 µM
Human DGKζ [2]
  IC50: 0.15 µM
[3]; [8]
  IC50: 0.08 µM

## C#CCn1c(=O)c([N+](=O)[O-])c(N2CCN(C(C)c3ccc(F)cc3)CC2)c2nc(C#N)ccc21 (racemic) [Example 135, 8-(4-(1-(4-fluorophenyl)ethyl)piperazin-1-yl)-7-nitro-6-oxo-5-(prop-2-yn-1-yl)-5,6-dihydro-1,5-naphthyridine-2-carbonitrile]
Human DGKα [1]; [7]
  IC50: 0.18 µM
Human DGKζ [2]
  IC50: 1.3 µM
[3]; [8]
  IC50: 0.34 µM

## C#CCn1c(=O)c([N+](=O)[O-])c(N2CCN(C(CC)c3ccc(F)cc3)CC2)c2nc(C#N)ccc21 (racemic) [Example 139, 8-{4-[1-(4-fluorophenyl)propyl]piperazin-1-yl}-7-nitro-6-oxo-5-(prop-2-yn-1-yl)-5,6-dihydro-1,5-naphthyridine-2-carbonitrile]
Human DGKα [1]; [7]
  IC50: 0.41 µM
Human DGKζ [2]
  IC50: 0.91 µM
[3]; [8]
  IC50: 0.13 µM

## COCCn1c(=O)c([N+](=O)[O-])c(N2CCN(C(C)c3ccc(F)cc3)CC2)c2nc(C#N)ccc21 (racemic) [Example 148, 8-(4-(1-(4-fluorophenyl)ethyl)piperazin-1-yl)-5-(2-methoxyethyl)-7-nitro-6-oxo-5,6-dihydro-1,5-naphthyridine-2-carbonitrile]
Human DGKα [1]; [7]
  IC50: 15 µM
Human DGKζ [2]
  IC50: 28 µM
[3]; [8]
  IC50: 0.87 µM

## C#CCn1c(=O)c([N+](=O)[O-])c(N2CCN(C(c3ccc(F)cc3)c3ccc(F)cc3O)CC2)c2nc(C#N)ccc21 (single isomer, unassigned) [Example 120, 8-(4-((4-fluoro-2-hydroxyphenyl)(4-fluorophenyl)methyl)piperazin-1-yl)-7-nitro-6-oxo-5-(prop-2-yn-1-yl)-5,6-dihydro-1,5-naphthyridine-2-carbonitrile]
Human DGKα [1]; [7]
  IC50: 18 µM
Human DGKζ [2]
  IC50: > 81 µM
[3]; read-out: API-Luciferase Reporter IC50, Table 3
  IC50: 1.3 µM

## C#CCn1c(=O)c([N+](=O)[O-])c(N2CCN(C(c3ccc(F)cc3)c3ccccc3OC)CC2)c2nc(C#N)ccc21 (single isomer, unassigned) [Example 131, 8-(4-((4-fluorophenyl)(2-methoxyphenyl)methyl)piperazin-1-yl)-7-nitro-6-oxo-5-(prop-2-yn-1-yl)-5,6-dihydro-1,5-naphthyridine-2-carbonitrile]
Human DGKα [1]; [7]
  IC50: 11 µM
Human DGKζ [2]
  IC50: 0.37 µM
[3]; [8]
  IC50: 0.5 µM

## COc1ccccc1C(c1ccc(F)cc1)N1CCN(c2c(C#N)c(=O)n(C)c3ccc(Br)nc23)CC1 (centres unmarked) [Example 12, 6-bromo-4-{4-[(4-fluorophenyl)(2-methoxyphenyl)methyl]piperazin-1-yl}-1-methyl-2-oxo-1,2-dihydro-1,5-naphthyridine-3-carbonitrile]
Human DGKα [1]; [7]
  IC50: 1 µM
Human DGKζ [2]
  IC50: > 81 µM
[3]; [8]
  IC50: 0.58 µM

## Cn1c(=O)c([N+](=O)[O-])c(N2CCN(C(CO)c3ccc(F)cc3)CC2)c2nc(C#N)ccc21 (centres unmarked) [Example 37, 8-{4-[1-(4-fluorophenyl)-2-hydroxyethyl]piperazin-1-yl}-5-methyl-7-nitro-6-oxo-5,6-dihydro-1,5-naphthyridine-2-carbonitrile]
Human DGKα [1]; [7]
  IC50: 1.8 µM
Human DGKζ [2]
  IC50: 38 µM
[3]; [8]
  IC50: 2.83 µM

## COCCn1c(=O)c(C#N)c(N2CCN(C(c3ccc(F)cc3)c3ccc(F)cc3)CC2)c2nc(Br)ccc21 [Example 113, 4-(4-(bis(4-fluorophenyl)methyl)piperazin-1-yl)-6-bromo-1-(2-methoxyethyl)-2-oxo-1,2-dihydro-1,5-naphthyridine-3-carbonitrile]
[3]; [8]
  IC50: 0.58 µM

## Cn1c(=O)c(C#N)c(N2CCN(Cc3ccc(O)c(F)c3)CC2)c2nc(Cl)ccc21 [Example 357, 6-chloro-4-{4-[(3-fluoro-4-hydroxyphenyl)methyl]piperazin-1-yl}-1-methyl-2-oxo-1,2-dihydro-1,5-naphthyridine-3-carbonitrile]
Human DGKα [4]
  IC50: 0.085 µM
Human DGKζ [5]
  IC50: 47 µM
Human DGKα [1]; [7]
  IC50: 0.028 µM
Human DGKζ [2]
  IC50: > 240 µM
[6]
  IC50: 5 µM

## Cn1c(=O)c(C#N)c(N2CCN(Cc3cccc4c3NC(=O)C4)CC2)c2nc(Br)ccc21 [Example 374, 6-bromo-1-methyl-2-oxo-4-{4-[(2-oxo-2,3-dihydro-1H-indol-7-yl)methyl]piperazin-1-yl}-1,2-dihydro-1,5-naphthyridine-3-carbonitrile]
[3]; [8]
  IC50: 7.93 µM

## Cn1c(=O)c(C#N)c(N2CCN(Cc3cccc4c3NC(=O)C4)CC2)c2nc(Cl)ccc21 [Example 376, 6-chloro-1-methyl-2-oxo-4-{4-[(2-oxo-2,3-dihydro-1H-indol-7-yl)methyl]piperazin-1-yl}-1,2-dihydro-1,5-naphthyridine-3-carbonitrile]
[3]; [8]
  IC50: 10 µM

## Cn1c(=O)c(C#N)c(N2CCN(Cc3cccc(C(C)(C)C)c3O)CC2)c2nc(Cl)ccc21 [Example 384, 4-{4-[(3-tert-butyl-2-hydroxyphenyl)methyl]piperazin-1-yl}-6-chloro-1-methyl-2-oxo-1,2-dihydro-1,5-naphthyridine-3-carbonitrile]
[3]; [8]
  IC50: 0.18 µM

## Cc1cccc(Cl)c1CN1CCN(c2c(C#N)c(=O)n(C)c3ccc(Cl)nc23)CC1 [Example 419, 6-chloro-4-{4-[(2-chloro-6-methylphenyl)methyl]piperazin-1-yl}-1-methyl-2-oxo-1,2-dihydro-1,5-naphthyridine-3-carbonitrile]
Human DGKα [4]
  IC50: 49 µM
Human DGKζ [5]
  IC50: 15 µM
Human DGKα [1]; [7]
  IC50: 81 µM
Human DGKζ [2]
  IC50: > 81 µM
[6]
  IC50: 0.29 µM
